In patent US7473698B2, “Secondary amino anilinic piperidines as MCH1 antagonists and uses thereof” (H. Lunbeck A/S, priority 2003, dated 2009):
pKd, pKi: −log10 of the molar value.

How the values were obtained:
rat MCH-1 [1] = biological target: T1, rat MCH-1 (Rattus norvegicus, UniProt P97639); experiment: Radioligand binding assay at cloned rat MCH1 receptor, [3H]Compound A, Peakr293 cell membranes; design: expressed in transfected cells; host or cells: Human embryonic kidney Peak rapid 293 cells (Peakr293), transient, calcium phosphate; membranes; conditions: 0.08 nM [3H]Compound A, 25° C., 90 minutes
Experimental: For binding assays, pellets of transfected cells are suspended in ice-cold buffer (20 mM Tris.HCl, 5 mM EDTA, pH 7.4) and homogenized by sonication for 7 sec. The cell lysates are centrifuged at 200×g for 5 min at 4° C. The supernatants are then centrifuged at 40,000×g for 20 min at 4° C. The resulting pellets are washed once in the homogenization buffer and suspended in binding buffer (see methods for radioligand binding). Protein concentrations are determined by the method of Bradford (1976) using bovine serum albumin as the standard. Binding assays are usually performed immediately, however it is possible to prepare membranes in batch and store frozen in liquid nitrogen for future use.
Radioligand binding assays for the rat MCH1 receptor were carried out using plasmid pcDNA3.1-rMCH1-f (ATCC Patent Deposit Designation No. PTA-3505). Plasmid pcDNA3.1-rMCH1-f comprises the regulatory elements necessary for expression of DNA in a mammalian cell operatively linked to DNA encoding the rat MCH1 receptor so as to permit expression thereof. Plasmid pcDNA3.1-rMCH1-f was deposited on Jul. 5, 2001, with the American Type Culture Collection (ATCC), 12301 Parklawn Drive, Rockville, Md. 20852, U.S.A. under the provisions of the Budapest Treaty for the International Recognition of the Deposit of Microorganisms for the Purposes of Patent Procedure and was accorded ATCC Patent Deposit Designation No. PTA-3505.
Human embryonic kidney Peak rapid 293 cells (Peakr293 cells) were transiently transfected with DNA encoding the MCH1 receptor utilizing the calcium phosphate method and cell membranes were prepared as described above. Binding experiments with membranes from Peakr293 cells transfected with the rat MCH1 receptor were performed with 0.08 nM [^3H]Compound A (custom labeled by Amersham) (the synthesis of Compound A is described in detail below) using an incubation buffer consisting of 50 mM Tris pH 7.4, 10 mM MgCl2, 0.16 mM PMSF, 1 mM 1,10 phenantroline and 0.2% BSA. Binding was performed at 25° C. for 90 minutes. Incubations were terminated by rapid vacuum filtration over GF/C glass fiber filters, presoaked in 5% PEI using […] Tris pH 7.4 as wash buffer. In all experiments, nonspecific binding is defined using […] Compound A.
The compounds described above were assayed using cloned rat MCH1.

MCH-1 receptor = MCH-1 receptor (Rattus norvegicus, UniProt P97639); conditions: in vivo; cited from earlier work
human MCH-1 = human MCH-1 (Homo sapiens, UniProt Q99705); conditions: one range printed for rat and human; cited from earlier work
rat MCH-1 [2] = biological target: T1, rat MCH-1; conditions: one range printed for rat and human; cited from earlier work
G4F-7 cells = conditions: cited from earlier work

T1 sequence (P97639 whole entry): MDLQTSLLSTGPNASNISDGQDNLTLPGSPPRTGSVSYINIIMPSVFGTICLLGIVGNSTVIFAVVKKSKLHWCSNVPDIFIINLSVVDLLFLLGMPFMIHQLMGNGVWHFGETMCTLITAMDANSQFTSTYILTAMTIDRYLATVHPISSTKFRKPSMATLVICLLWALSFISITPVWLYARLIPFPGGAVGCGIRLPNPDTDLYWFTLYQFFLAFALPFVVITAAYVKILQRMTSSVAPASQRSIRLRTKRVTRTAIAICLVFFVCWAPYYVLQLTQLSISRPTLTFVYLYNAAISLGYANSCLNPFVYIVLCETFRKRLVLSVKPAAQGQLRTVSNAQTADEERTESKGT
Sequence of MCH-1 receptor (P97639 whole entry): as above
Sequence of human MCH-1 (Q99705 whole entry): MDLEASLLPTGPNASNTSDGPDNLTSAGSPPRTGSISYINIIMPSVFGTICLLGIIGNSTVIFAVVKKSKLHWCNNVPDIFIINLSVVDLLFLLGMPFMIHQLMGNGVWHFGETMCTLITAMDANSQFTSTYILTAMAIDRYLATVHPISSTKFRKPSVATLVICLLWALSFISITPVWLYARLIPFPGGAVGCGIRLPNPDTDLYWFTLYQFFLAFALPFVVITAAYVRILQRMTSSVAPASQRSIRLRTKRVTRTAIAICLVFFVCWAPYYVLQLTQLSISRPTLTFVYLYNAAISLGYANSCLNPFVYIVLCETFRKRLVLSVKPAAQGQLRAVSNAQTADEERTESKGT

| Molecule | pKi (rat MCH-1 [1]) | further results |
| --- | --- | --- |
| O=C(CCCCc1ccccc1)Nc1cccc(C2CCNCC2)c1 [Example 2, 5-Phenyl-N-[3-(4-Piperidinyl)Phenyl]Pentanamide] | 6.71 |  |
| O=C(CCCCC(=O)c1ccccc1)Nc1cccc(C2CCNCC2)c1 [Example 3, 6-Oxo-6-Phenyl-N-[3-(4-Piperidinyl)Phenyl]Hexanamide] | 5.96 |  |
| O=C(Nc1cccc(C2CCNCC2)c1)c1cccnc1Oc1ccccc1 [Example 4, 2-Phenoxy-N-[3-(4-Piperidinyl) Phenyl]Nicotinamide] | 6.45 |  |
| COc1ccc(CCCCC(=O)Nc2cccc(C3CCNCC3)c2)cc1 [Example 5, 5-(4-Methoxyphenyl)-N-[3-(4-Piperidinyl)Phenyl]Pentanamide] | 6.32 |  |
| O=C(CCCCCNc1ccc(F)c(F)c1)Nc1cccc(C2CCNCC2)c1 [Example 6, 6-(3,4-Difluoroanilino)-N-[3-(4-Piperidinyl) Phenyl]Hexanamide] | 6.36 |  |
| O=C(CCCCC(=O)c1ccccc1)Nc1cc(C2CCNCC2)ccc1F [Example 9, N-[2-Fluoro-5-(4-Piperidinyl) Phenyl]-6-Oxo-6-Phenylhexanamide] | 6.50 |  |
| CN(C)CC1CCc2cc(NC(=O)c3ccc(-c4ccc(F)cc4)cc3)ccc2C1 (centres unmarked) [Example T-226296] |  | food intake induced by the intracerebroventricular application of MCH (MCH-1 receptor): inhibit food intake; affinity for the MCH-1 receptor (human MCH-1): 5 to 9 nM; affinity for the MCH-1 receptor (rat MCH-1 [2]): 5 to 9 nM |
| [Phe^13,Tyr^19]-MCH |  | pKd (G4F-7 cells; radioiodinated ligand, G4F-7 cells): 9.93 |
| native MCH: Melanin-concentrating hormone, a cyclic peptide |  | pKi (G4F-7 cells; inhibition of radioiodinated [Phe13,Tyr19]-MCH binding): 7.92 |
| α-MSH |  | inhibition of binding (G4F-7 cells; inhibition of radioiodinated [Phe13,Tyr19]-MCH binding, in words): not inhibited |

More lines, in order of rising pKi (rat MCH-1 [1]), values ahead:

| pKi (rat MCH-1 [1]) | Molecule | further results |
| --- | --- | --- |
| 6.85 | COC(=O)C1=C(C)NC(=O)N(C(=O)NCCCC(=O)Nc2cccc(C3CCNCC3)c2)C1c1ccc(F)cc1 (centres unmarked) [Example 7, Methyl 4-(4-Fluorophenyl)-6-Methyl-2-Oxo-3-[({4-OXO-4-[3-(4-Piperidinyl)Anilino]Butyl}Amino)Carbonyl]-1,2,3,4-Tetrahydro-5-Pyrimidinecarboxylate] |  |
| 7.10 | COc1ccccc1CCCCC(=O)Nc1cccc(C2CCNCC2)c1 [Example 1, 5-(2-Methoxyphenyl)-N-[3-(4-Piperidinyl)Phenyl]Pentanamide] |  |
| 7.33 | COc1ccccc1CCCCC(=O)Nc1cc(C2CCNCC2)c(F)cc1F [Example 11, N-[2,4-Difluoro-5-(4-Piperidinyl)Phenyl]-5-(2-Methoxyphenyl)Pentanamide] |  |
| 7.47 | O=C(CCc1ccc(Oc2ccc(F)c(F)c2)cc1)Nc1cc(C2CCNCC2)ccc1F [Example 12, 3-[4-(3,4-Difluorophenoxy)Phenyl]-N-[2-Fluoro-5-(4-Piperidinyl)Phenyl]Propanamide] |  |
| 7.68 | COc1ccccc1CCCCC(=O)Nc1cc(C2CCNCC2)ccc1F [Example 10, N-[2-Fluoro-5-(4-Piperidinyl)Phenyl]-5-(2-Methoxyphenyl)Pentanamide] |  |
